Laboratory results published in the NIST ThermoML archive (doi:10.1016/j.jct.2008.01.018).

Experiment: refractive index (Na D-line) (dimensionless); mn = molality of the nth substance listed, in mol/kg
Conditions: 298.15 K, 101 kPa, Liquid, Standard Abbe refractometry

O=P([O-])(O)O.[Na+] [sodium dihydrogen phosphate] + O
Conditions | refractive index
m1 = 0.0207 | 1.3331
m1 = 0.0415 | 1.3334
m1 = 0.0697 | 1.3338
m1 = 0.1051 | 1.3342
m1 = 0.1397 | 1.3351
m1 = 0.1901 | 1.3357
m1 = 0.2357 | 1.3363
m1 = 0.2947 | 1.3373
m1 = 0.3516 | 1.3382
m1 = 0.433 | 1.3393
m1 = 0.5113 | 1.3405
m1 = 0.5842 | 1.3416
m1 = 0.653 | 1.3425
m1 = 0.6999 | 1.3432
m1 = 0.7919 | 1.3442
m1 = 0.9206 | 1.3459
m1 = 1.175 | 1.3491
m1 = 1.18 | 1.3491
m1 = 1.447 | 1.3524
m1 = 1.794 | 1.3565
m1 = 2.079 | 1.3597
m1 = 2.396 | 1.3629
m1 = 2.398 | 1.3627
